The values below come from patent US9872919B2, “Prodrugs for selective anticancer therapy” (THE RESEARCH FOUNDATION FOR THE STATE UNIVERSITY OF NEW YORK, priority 2012, dated 2018).

Where only a bound is given, the exact number is not on record here.

For data set [1], the system named is non-malignant Caco-2 cells. Nature of the data set: MTS cell viability assay, Caco-2. Format: cell-based, human. As to the method: FIG. 13. Inhibition of cell viability by BKAc-Puro is presented in dose-response curve format for the same cell lines as in FIG. 8. The cell lines were treated with DMSO or the indicated doses of agent (4.22, 8.44, 16.9, 33.8, 67.5, or 135 μM) for 5 d followed by MTS assay. Data represent mean values of triplicate mesurements±s.d. (n=3). IC50 values were fit by logistic regression.
(§1) Cell number was determined by cell counting using improved Neubauer hemacytometer. Cell viability was calculated as the number of viable cells divided by the total number of cells using Trypan Blue Stain (Invitrogen) to distinguish non-viable cells. Data were obtained from duplicated samples with quadruplicate measurements. MTS based cell viability assay was performed using CellTiter 96 Aqueous Cell Proliferation Assay (Promega) according to the manufacturer's instruction. […] After additional 2-3 h incubation, the absorbance of the formazan at 490 nm was measured by the microplate reader. […] Determination of non-viable cells using PI staining was performed by adding 1 μg/ml of PI solution (Sigma) to the cell culture, prior to the examination under fluorescence microscopy (Axiovert 3, Carl Zeiss) through a×32 objective equipped with a digital imaging processor (Infinity 3, Lumenera).

Data set [2] has as its system malignant colon cancer cells with high HDAC and CTSL activity. Put plainly: Cell number, trypan blue viability and PI staining, malignant colon cancer cells. To be noted: 54 μM. Format: cell-based, human. As to the method: FIG. 9. The colon cancer cell lines were grown for 5 d either with vehicle control DMSO (gray symbols) or 54 μM BKAc-Puro (red and blue symbols), and cell number was determined at the indicated time points.
FIG. 10. The cell lines were grown as in FIG. 8, cell viability was determined by trypan blue at the indicated time points, and is presented as the percentage of live cells treated with vehicle control (gray symbols) or BKAc-Puro (red and blue symbols).
FIG. 11. The cell lines were grown as in FIG. 8, and dead cells were determined after 80 h by PI signal under fluorescent microscope. BF, bright field. PI, fluorescent PI channel.
FIG. 12. Selective cytotoxicity by BKAc-Puro. The cell lines were grown and analyzed as in FIG. 10. […]
as §1, with “cells.” for “cells. Data were obtained from duplicated samples with quadruplicate measurements. MTS based cell viability assay was performed using CellTiter 96 Aqueous Cell Proliferation Assay (Promega) according to the manufacturer's instruction.”

The subject of data set [3] is breast cancer cells (MCF-7 and MDA-MB-231). Nature of the data set: PI staining cytotoxicity, breast cancer cells. Format: cell-based, human. The method, then:
FIG. 17. Selective cytotoxicity by BKAc-Puro on breast cancer cells. Normal mammary gland epithelial cells (Eph4) and breast cancer cells (MCF-7 and MDA-MB-231) were grown and analyzed as in FIG. 10. BF, bright field. PI, fluorescent PI channel. BKAc-Puro can selectively cause cell death in breast cancer cells (MCF-7 and MDA-MB-231) while leaving normal Eph4 cells unharmed.
as §1

For data set [4], the system named is HCT116, HT29, CCD841-CoN and Caco-2 cells. Nature of the data set: Immunological detection of Puro-labeled proteins in cells. Format: cell-based, human. The method, then:
FIG. 27. Levels of Puro-incorporated proteins in the cells were monitored by immunoblotting. Indicated cell lines were treated either with vehicle control DMSO or Boc-KAc-Puro (16.9 μM) in the presence or absence of TSA (0.5 μM) for 20 h, followed by preparation of cell lysates. The lower panel (anti-α-Tubulin) serves as a loading control.
FIG. 28. Levels of Puro-incorporated proteins in the cells were monitored by immunoblotting. Indicated cell lines were treated either with vehicle control DMSO or Puro (2.1 μM) in the presence or absence of TSA (0.5 μM) for 16 h, followed by preparation of cell lysates. […] The lower panel (anti-α-Tubulin) serves as a loading control.
Cultured cells or tissue samples were sonicated in RIPA lysis buffer (1% NP-40, 0.1% SDS, 50 mM Tris-HCl pH 7.4, 150 mM NaCl, 0.5% sodium deoxycholate, 1 mM EDTA) supplemented with PMSF and protease inhibitor cocktail (Roche) on ice followed by clarification. Protein lysates were separated on sodium dodecyl sulfate-polyacrylamide gels and transferred onto nitrocellulose membranes (Whatman). The primary antibodies used were anti-puromycin (3RH11, KeraFAST) and anti-α-tubulin (Sigma-Aldrich). Proteins of interest were detected with anti-mouse secondary antibody by chemiluminescence (ECL Kit, GE Healthcare Life Sciences).

Source text for HCT116 xenograft tumors: HCT116 cells were implanted subcutaneously into female nude mice. When the developed tumors reached 200 mm^3, animals were intraperitoneally injected by the indicated dose of the compound or vehicle control (DMSO). Tumor volume was estimated by the equation vol=(a×b^2)/2, where vol, a, and b represent volume, the length of the major axis, and the length of the minor axis, respectively. […] (b) Body weight change during the treatment in a. Value is expressed in percent change compared to the day of the first treatment.
HCT116 cells were implanted subcutaneously into female nude mice. When palpable tumors reached 50-150 mm^3, animals were randomized and treated by the indicated dose of the compound or vehicle control (DMSO) via intraperitoneal injection. Tumor incidence is presented as number of mice developed tumor (volume>300 mm^3) after 2 weeks of daily treatment/number of mice treated. Tumor volume was estimated by the equation vol=(a×b^2)/2, where vol, a, and b represent volume, the length of the major axis, and the length of the minor axis, respectively.
The growth inhibitory effects of the compounds on size-matched xenografts are examined by subcutaneous implantation of HCT116 cells into nude mice. HCT116 cells are injected subcutaneously and allowed to develop palpable tumors (50-150 mm^3) before initiation of drug administration. Mice (5-10 animals per group) are treated with the vehicle (DMSO or PBS) or the prodrugs by intraperitoneal administration. […] Tumor volumes are approximated by using the equation vol=(a×b^2)/2, where vol, a, and b represent volume, the length of the major axis, and the length of the minor axis, respectively. Relative tumor volume is calculated by dividing tumor volume by that on day 0 (the day of treatment initiation). The weight of the mice is checked to monitor unfavorable effects by the compounds being tested and upon any indication of distress the mice is humanely euthanized.

In the case of `COc1ccc(C[C@H](NC(=O)[C@H](CCCCNC(C)=O)NC(=O)OC(C)(C)C)C(=O)N[C@H]2[C@@H](O)[C@H](n3cnc4c(N(C)C)ncnc43)O[C@@H]2CO)cc1` [BKAc-Puro, N-[3′-(α-Amino-p-methoxyhydrocinnamamido)-3′-deoxy-N,N-dimethyldenosinyl]-N-α-(t-butoxycarbonyl)-N-ε-acetyl-L-lysineamide], the “highest inactive dose relative to dose of parental Puro effective to these cells” value in data set [1] (Caco-2, 135 μM BKAc-Puro vs parental Puro) is “more than 30 times”. Moreover, the half-maximal inhibitory concentration (IC50) in data set [1] (MTS, 5 d, sufficient inhibition not achieved with doses up to 135 μM) was over 135 µM. The “cell proliferation (cell number)” value in data set [2] (5 d, all four malignant cells) was “impaired the proliferation”. In addition, the “cell death (trypan blue exclusion, morphology, PI staining)” value in data set [2] (colon cell line panel) was “massive cell death wass detected only in the malignant cells”. For the same molecule, the cell death entry in data set [3] was “selectively caused cell death”. In addition, the “intensity of Puro incorporation in the presence of TSA” value in data set [4] (TSA 0.5 μM) is reported as “compromised intensity”. Besides, in data set [4] (immunoblot, Boc-KAc-Puro 16.9 μM 20 h, Puro 2.1 μM 16 h), the “intensity of Puro incorporation, malignant vs normal and non-malignant cells” value is reported as “substantially greater in malignant cancer cells”. The “tumor incidence (tumor volume above threshold after 2 weeks of daily treatment)” value with HCT116 xenograft tumors (200 mg/kg, intraperitoneal) was “no tumors greater than 300 mm^2 were observed”. Also, the tumor growth entry in the data set on HCT116 xenograft tumors (intraperitoneal, tumors 200 mm^3 at start) was “inhibition of tumor growth”. Besides, in the data set with HCT116 xenograft tumors (mouse, in vivo), the “toxicity in tumor incidence study” value is listed as “no toxicity was observed”.
